The values that follow come from US4073938A, “19,20-Bis-nor-prostenoic acids as hypolipemic compounds” (Istituto Biochimico Italiano di Loredana Lorenzini S.a.s., priority 1974, dated 1978).

A short description of this experiment: Triglycerides and cholesterol in rats on Nath diet, 25 and 50 mg/kg endoperitoneal. Type of experiment: in vivo, male Sprague-Dawley rats. As to conditions: 1 week. Here is the method:
Treatment with 25 and 50 mg/kg/die endoperitoneal for 1 week on male
Sprague-Dawley rats of 150 gr.

Structures can show the parent of a compound that is named as a salt.

With `CCCCCCC1CCC(O)C1CCCCCCC(=O)O` (stereo not shown) [Compound C83, 9-hydroxy-19,20-bis-nor-prostanoic acid sodium salt], the cholesterol is 108.3 ± 13.9 (25 mg/kg/die endoperitoneal, controls 64.4 ± 2.8, Nath diet 180.0 ± 15.8, p<0.01 vs Nath diet) and 101.8 ± 4.4 (50 mg/kg/die endoperitoneal, Nath diet 180.0 ± 15.8, p<0.001 vs Nath diet). The triglycerides reads like this: (25 mg/kg/die endoperitoneal, controls 91.1 ± 13.5, Nath diet 135.2 ± 22.8) 81.5 ± 13.3; (50 mg/kg/die endoperitoneal, Nath diet 135.2 ± 22.8, p<0.01 vs Nath diet) 49.1 ± 6.1.
